# Like-named read-outs stand apart in the source and are kept apart here.
# Tests used:
# [1] = molecular target: human Cereblon WT GST-tagged protein (Homo sapiens (Human), UniProt Q96SW2); assay: CRBN-binding affinity, HTRF (CEREBLON BINDING kit, CISBIO); conditions: HTRF inhibitory activity
# How it was run: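 Compounds were mixed with GST-tagged human Cereblon WT protein, then with Thalidomide-Red tracer and GST Eu antibody, and binding was read by HTRF. Inhibition rate was calculated from 620 nm emission relative to blank control wells (no protein) and solvent control wells.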
# [2] = system: CCRF-CEM (human acute lymphoblastic leukemia T-cells); assay: Tumor cell proliferation inhibition, CCK-8; type: cell-based
# How it was run: (§1)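 IC50 values reflect reduced CCK-8 signal in cells given compound 24 h after plating, across ten 5-fold dilutions with 10 μM as the maximum.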
# [3] = system: Kasumi-1 (human acute myeloid leukemia cells); assay: Tumor cell proliferation inhibition, CCK-8; type: cell-based
# How it was run: as §1
# [4] = system: MDA-MB-231 cells (human breast adenocarcinoma cells); assay: Tumor cell proliferation inhibition, CCK-8; type: cell-based
# How it was run: as §1
# [5] = system: MM.1S cells (human multiple myeloma cells); assay: Tumor cell proliferation inhibition, CCK-8; type: cell-based; conditions: MM1.S
# How it was run: as §1
# [6] = molecular target: IKZF1 (Homo sapiens (Human), UniProt Q13422+Q96SW2); assay: Western blot, substrate protein expression in hPBMC: IKZF1; type: cell-based; conditions: hPBMC, compound 500 nM, 24 hours, Western blot
# Sequence of IKZF1 (Q13422 whole entry): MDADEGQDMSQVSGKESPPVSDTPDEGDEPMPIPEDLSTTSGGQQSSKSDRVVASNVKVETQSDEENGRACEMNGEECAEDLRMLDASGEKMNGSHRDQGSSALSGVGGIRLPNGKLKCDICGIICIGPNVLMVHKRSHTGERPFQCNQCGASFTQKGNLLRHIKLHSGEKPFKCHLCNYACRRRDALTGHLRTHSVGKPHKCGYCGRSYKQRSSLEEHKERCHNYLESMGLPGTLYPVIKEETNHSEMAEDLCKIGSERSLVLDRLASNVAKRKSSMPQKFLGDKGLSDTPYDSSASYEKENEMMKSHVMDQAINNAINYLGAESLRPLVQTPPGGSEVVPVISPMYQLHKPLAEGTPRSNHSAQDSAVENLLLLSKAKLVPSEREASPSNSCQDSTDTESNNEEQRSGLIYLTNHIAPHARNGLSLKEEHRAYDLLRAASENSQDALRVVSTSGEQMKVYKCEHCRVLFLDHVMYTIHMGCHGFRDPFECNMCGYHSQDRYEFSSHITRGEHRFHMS
# Sequence of IKZF1 (Q96SW2 whole entry): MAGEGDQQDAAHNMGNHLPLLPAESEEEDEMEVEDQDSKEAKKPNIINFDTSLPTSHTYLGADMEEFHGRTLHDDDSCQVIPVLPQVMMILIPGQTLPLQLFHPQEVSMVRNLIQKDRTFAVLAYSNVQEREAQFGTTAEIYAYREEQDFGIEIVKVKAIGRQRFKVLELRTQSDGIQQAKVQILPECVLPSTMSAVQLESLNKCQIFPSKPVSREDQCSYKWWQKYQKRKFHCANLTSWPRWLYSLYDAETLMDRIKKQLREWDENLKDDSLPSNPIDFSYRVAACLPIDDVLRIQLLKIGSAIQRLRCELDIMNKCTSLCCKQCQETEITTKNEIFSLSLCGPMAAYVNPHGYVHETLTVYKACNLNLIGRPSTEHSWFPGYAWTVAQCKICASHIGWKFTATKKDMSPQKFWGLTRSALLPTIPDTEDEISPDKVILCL
# Sequence of IKZF1 (Q16531 whole entry partner): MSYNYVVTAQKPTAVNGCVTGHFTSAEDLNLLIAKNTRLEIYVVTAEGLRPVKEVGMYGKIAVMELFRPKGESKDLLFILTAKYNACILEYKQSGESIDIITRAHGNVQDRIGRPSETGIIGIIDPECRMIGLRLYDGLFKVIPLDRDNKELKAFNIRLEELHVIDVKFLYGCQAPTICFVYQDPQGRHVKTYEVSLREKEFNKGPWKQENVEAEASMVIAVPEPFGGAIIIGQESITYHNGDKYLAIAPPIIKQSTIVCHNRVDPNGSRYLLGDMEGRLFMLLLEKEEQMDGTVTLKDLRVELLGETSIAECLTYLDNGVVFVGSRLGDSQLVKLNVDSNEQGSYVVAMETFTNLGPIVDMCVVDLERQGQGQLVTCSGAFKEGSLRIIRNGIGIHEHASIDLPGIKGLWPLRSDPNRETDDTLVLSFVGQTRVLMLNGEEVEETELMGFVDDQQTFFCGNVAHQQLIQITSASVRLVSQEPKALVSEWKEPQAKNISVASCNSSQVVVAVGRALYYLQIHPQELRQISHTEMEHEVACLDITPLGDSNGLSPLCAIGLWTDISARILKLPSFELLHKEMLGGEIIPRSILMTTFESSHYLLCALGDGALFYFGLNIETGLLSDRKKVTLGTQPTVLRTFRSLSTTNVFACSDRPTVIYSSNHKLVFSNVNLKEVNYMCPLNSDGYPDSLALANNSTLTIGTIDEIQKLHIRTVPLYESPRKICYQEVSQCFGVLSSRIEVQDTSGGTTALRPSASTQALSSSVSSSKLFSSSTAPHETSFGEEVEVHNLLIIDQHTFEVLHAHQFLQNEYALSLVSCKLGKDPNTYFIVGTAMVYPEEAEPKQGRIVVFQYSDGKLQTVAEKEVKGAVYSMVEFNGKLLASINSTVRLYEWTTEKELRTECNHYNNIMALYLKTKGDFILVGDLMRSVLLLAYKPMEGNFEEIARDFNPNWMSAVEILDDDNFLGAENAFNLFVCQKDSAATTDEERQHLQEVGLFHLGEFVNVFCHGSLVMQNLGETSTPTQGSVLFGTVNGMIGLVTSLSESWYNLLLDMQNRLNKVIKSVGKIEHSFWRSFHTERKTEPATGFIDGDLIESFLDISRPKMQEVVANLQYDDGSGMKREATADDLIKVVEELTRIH
# How it was run: (§2)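 hPBMC, 1×10^6 cells/mL, 24 h compound exposure; RIPA lysis, BCA protein assay, SDS-PAGE, NC membrane immunoblot. Densitometry vs internal control → % protein remaining; degradation % = 100% − remaining; DC50 = conc. at 50% of DMSO band signal.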
# [7] = molecular target: IKZF3 (Homo sapiens (Human), UniProt Q96SW2+Q9UKT9); assay: Western blot, substrate protein expression in hPBMC: IKZF3; type: cell-based; conditions: hPBMC, compound 500 nM, 24 hours, Western blot
# Sequence of IKZF3 (Q9UKT9 whole entry): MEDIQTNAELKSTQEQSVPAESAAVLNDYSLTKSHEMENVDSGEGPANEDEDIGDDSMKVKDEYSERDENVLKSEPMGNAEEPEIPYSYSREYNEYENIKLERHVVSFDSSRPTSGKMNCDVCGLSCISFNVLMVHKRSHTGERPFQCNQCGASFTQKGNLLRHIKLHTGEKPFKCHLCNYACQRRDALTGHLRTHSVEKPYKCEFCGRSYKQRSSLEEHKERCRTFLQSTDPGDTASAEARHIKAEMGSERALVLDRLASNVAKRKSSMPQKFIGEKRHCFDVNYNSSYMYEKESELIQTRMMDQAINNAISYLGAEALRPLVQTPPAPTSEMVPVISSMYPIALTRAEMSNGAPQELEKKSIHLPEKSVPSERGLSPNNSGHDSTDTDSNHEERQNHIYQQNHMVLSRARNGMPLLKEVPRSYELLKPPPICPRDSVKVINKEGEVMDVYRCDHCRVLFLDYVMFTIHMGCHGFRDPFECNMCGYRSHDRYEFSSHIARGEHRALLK
# Sequence of IKZF3 (Q96SW2 whole entry): as the sequence (Q96SW2 whole entry) above
# Sequence of IKZF3 (Q16531 whole entry partner): as the sequence (Q16531 whole entry partner) above
# How it was run: as §2
# [8] = molecular target: GSPT1 (Homo sapiens (Human), UniProt P15170+Q96SW2); assay: Western blot, substrate protein expression in hPBMC: GSPT1; type: cell-based; conditions: hPBMC, compound 500 nM, 24 hours, Western blot
# Sequence of GSPT1 (P15170 whole entry): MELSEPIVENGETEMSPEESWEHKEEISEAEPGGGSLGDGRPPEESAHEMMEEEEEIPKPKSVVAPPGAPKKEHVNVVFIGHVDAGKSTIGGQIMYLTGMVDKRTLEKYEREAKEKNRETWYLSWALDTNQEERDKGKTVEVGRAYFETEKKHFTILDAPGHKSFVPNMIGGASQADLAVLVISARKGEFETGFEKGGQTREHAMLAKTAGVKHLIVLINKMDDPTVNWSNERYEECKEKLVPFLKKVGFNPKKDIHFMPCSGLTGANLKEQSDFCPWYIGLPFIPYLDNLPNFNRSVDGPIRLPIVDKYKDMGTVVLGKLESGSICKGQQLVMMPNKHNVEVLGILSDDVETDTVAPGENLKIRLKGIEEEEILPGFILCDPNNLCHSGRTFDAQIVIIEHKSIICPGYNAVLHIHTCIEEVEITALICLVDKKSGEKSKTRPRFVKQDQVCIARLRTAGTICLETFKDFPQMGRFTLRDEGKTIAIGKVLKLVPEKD
# Sequence of GSPT1 (Q96SW2 whole entry): as the sequence (Q96SW2 whole entry) above
# Sequence of GSPT1 (Q16531 whole entry partner): as the sequence (Q16531 whole entry partner) above
# How it was run: as §2
# [9] = system: MM.1R cells (dexamethasone-resistant human multiple myeloma cells); assay: Tumor cell proliferation inhibition, CCK-8; type: cell-based
# How it was run: as §1
# [10] = system: CAL-62 (human thyroid carcinoma cells); assay: Tumor cell proliferation inhibition, CCK-8; type: cell-based
# How it was run: as §1
# [11] = system: H146 cells (human small cell lung carcinoma cells); assay: Tumor cell proliferation inhibition, CCK-8; type: cell-based
# How it was run: as §1
# [12] = system: Jurkat cells (human T-cell leukemia cells); assay: Tumor cell proliferation inhibition, CCK-8; type: cell-based
# How it was run: as §1
# [13] = system: TMD8 cells (human diffuse large B-cell lymphoma cells); assay: Tumor cell proliferation inhibition, CCK-8; type: cell-based
# How it was run: as §1
# [14] = CCRF-CEM cells, CCK-8, read-out: inhibitory activity (IC50, nM) CCRF-CEM
# [15] = Kasumi-1 cells, CCK-8, read-out: inhibitory activity (IC50, nM) Kasumi-1
# [16] = MDA-MB-231 cells, CCK-8, read-out: inhibitory activity (IC50, nM) MDA-MB-231
# [17] = MM.1S cells, CCK-8, read-out: inhibitory activity (IC50, nM) MM.1S
# [18] = MM.1R cells, CCK-8, read-out: inhibitory activity (IC50, nM) MM.1R
# [19] = CAL-62 cells, CCK-8, read-out: inhibitory activity (IC50, nM) CAL-62
# [20] = NCI-H146, H146 cells, CCK-8, read-out: inhibitory activity (IC50, nM) H146
# [21] = Jurkat cells, CCK-8, read-out: inhibitory activity (IC50, nM) Jurkat
# [22] = TMD8 cells, CCK-8, read-out: inhibitory activity (IC50, nM) TMD8
# Sequence of human Cereblon WT GST-tagged protein (Q96SW2 whole entry): as the sequence (Q96SW2 whole entry) above
Compound,IC50 [1],"IC50 [2, 14]","IC50 [3, 15]","IC50 [4, 16]","IC50 [5, 17]",substrate protein remaining % IKZF1 [6],substrate protein remaining % IKZF3 [7],substrate protein remaining % GSPT1 [8],"IC50 [9, 18]","IC50 [10, 19]","IC50 [11, 20]","IC50 [12, 21]",further results
"O=C1CCC(N2Cc3cc(CN4CCN(C(c5ccccc5)c5ccccc5)CC4)cc(F)c3C2=O)C(=O)N1 (stereo not shown) [GT-03467, 3-(5-((4-benzhydrylpiperazin-1-yl)methyl)-7-fluoro-1-oxoisoindolin-2-yl)piperidine-2,6-dione]",500 to 1000 nM,10 to 50 nM,50 to 100 nM,100 to 500 nM,100 to 500 nM,,,,,,,,
"O=C1CCC(N2Cc3cc(CN4CCN(C(c5ccc(Cl)cc5)c5ccc(Cl)cc5)CC4)ccc3C2=O)C(=O)N1 (stereo not shown) [GT-03566, 3-(5-((4-(bis(4-chlorophenyl)methyl)piperazin-1-yl)methyl)-1-oxoisoindolin-2-yl)piperidine-2,6-dione]",1000 to 1900 nM,10 to 50 nM,,,500 to 1000 nM,A (A represents 0% ≤ substrate protein remaining % ≤ 50%),A (A represents 0% ≤ substrate protein remaining % ≤ 50%),A (A represents 0% ≤ substrate protein remaining % ≤ 50%),100 to 500 nM,,,,
"O=C1CCC(N2Cc3cc(CN4CCN(C(c5ccc(Cl)cc5)c5ccc(Cl)cc5)CC4)c(F)cc3C2=O)C(=O)N1 (stereo not shown) [GT-03699, 3-(5-((4-(bis(4-chlorophenyl)methyl)piperazin-1-yl)methyl)-6-fluoro-1-oxoisoindolin-2-yl)piperidine-2,6-dione]",,10 to 50 nM,,,50 to 100 nM,B (B represents substrate protein remaining % > 50%),A (A represents 0% ≤ substrate protein remaining % ≤ 50%),A (A represents 0% ≤ substrate protein remaining % ≤ 50%),50 to 100 nM,50 to 100 nM,,,
"O=C1CCC(N2Cc3cc(CN4CCN(C(c5cccc(F)c5)c5cccc(F)c5)CC4)cc(F)c3C2=O)C(=O)N1 (stereo not shown) [GT-03704, 3-(5-((4-(bis(3-fluorophenyl)methyl)piperazin-1-yl)methyl)-7-fluoro-1-oxoisoindolin-2-yl)piperidine-2,6-dione]",< 500 nM,1 to 10 nM,50 to 100 nM,50 to 100 nM,10 to 50 nM,B (B represents substrate protein remaining % > 50%),A (A represents 0% ≤ substrate protein remaining % ≤ 50%),A (A represents 0% ≤ substrate protein remaining % ≤ 50%),10 to 50 nM,10 to 50 nM,100 to 500 nM,100 to 500 nM,
"O=C1CCC(N2Cc3c(ccc(CN4C[C@@H]5C[C@H]4CN5C(c4ccccc4)c4ccccc4)c3F)C2=O)C(=O)N1 (stereo partly drawn) [GT-03724, 3-(5-(((1S,4S)-5-benzhydryl-2,5-diazabicyclo[2.2.1]heptan-2-yl)methyl)-4-fluoro-1-oxoisoindolin-2-yl)piperidine-2,6-dione]",< 500 nM,10 to 50 nM,,,10 to 50 nM,A (A represents 0% ≤ substrate protein remaining % ≤ 50%),A (A represents 0% ≤ substrate protein remaining % ≤ 50%),A (A represents 0% ≤ substrate protein remaining % ≤ 50%),10 to 50 nM,,,,
"O=C1CCC(N2Cc3cc(CN4C5CCC4CN(C(c4ccccc4)c4ccccc4)C5)c(F)cc3C2=O)C(=O)N1 (stereo not shown) [GT-03839, 3-(5-((3-benzhydryl-3,8-diazabicyclo[3.2.1]octan-8-yl)methyl)-6-fluoro-1-oxoisoindolin-2-yl)piperidine-2,6-dione]",1000 to 1900 nM,10 to 50 nM,10 to 50 nM,50 to 100 nM,10 to 50 nM,B (B represents substrate protein remaining % > 50%),A (A represents 0% ≤ substrate protein remaining % ≤ 50%),A (A represents 0% ≤ substrate protein remaining % ≤ 50%),10 to 50 nM,10 to 50 nM,500 to 1000 nM,,
"O=C1CCC(N2Cc3cc(CN4CCN([C@H](c5ccccc5)c5ccccn5)CC4)ccc3C2=O)C(=O)N1 (stereo partly drawn) [GT-04523, 3-(1-oxo-5-((4-((R)-phenyl(pyridin-2-yl)methyl)piperazin-1-yl)methyl)isoindolin-2-yl)piperidine-2,6-dione]",500 to 1000 nM,,,50 to 100 nM,1 to 10 nM,A (A represents 0% ≤ substrate protein remaining % ≤ 50%),A (A represents 0% ≤ substrate protein remaining % ≤ 50%),A (A represents 0% ≤ substrate protein remaining % ≤ 50%),1 to 10 nM,1 to 10 nM,10 to 50 nM,50 to 100 nM,"IC50 [13, 22]: 500 to 1000 nM"
"O=C1CCC(N2Cc3cc(CN4CCN([C@@H](c5ccccc5)c5ccccn5)CC4)ccc3C2=O)C(=O)N1 (stereo partly drawn) [GT-04524, 3-(1-oxo-5-((4-((S)-phenyl(pyridin-2-yl)methyl)piperazin-1-yl)methyl)isoindolin-2-yl)piperidine-2,6-dione]",500 to 1000 nM,,,500 to 1000 nM,10 to 50 nM,A (A represents 0% ≤ substrate protein remaining % ≤ 50%),A (A represents 0% ≤ substrate protein remaining % ≤ 50%),A (A represents 0% ≤ substrate protein remaining % ≤ 50%),10 to 50 nM,10 to 50 nM,100 to 500 nM,10 to 50 nM,
"Nc1cccc2c1CN(C1CCC(=O)NC1=O)C2=O (stereo not shown) [lenalidomide, reference compound]",,,,,,,,,,,,,"IC50 ([10]; CAL-62, read-out: inhibitory activity (IC50, nM) CAL-62): > 10000 nM; IC50 ([2]; CCRF-CEM, read-out: inhibitory activity (IC50, nM) CCRF-CEM): > 10000 nM; IC50 ([11]; NCI-H146, read-out: inhibitory activity (IC50, nM) H146): > 10000 nM; IC50 ([12]; Jurkat, read-out: inhibitory activity (IC50, nM) Jurkat): > 10000 nM; IC50 ([3]; Kasumi 1, read-out: inhibitory activity (IC50, nM) Kasumi-1): > 10000 nM; IC50 ([4]; MDA-MB-231, read-out: inhibitory activity (IC50, nM) MDA-MB-231): > 10000 nM; IC50 ([9]; MM.1R, read-out: inhibitory activity (IC50, nM) MM.1R): > 10000 nM; IC50 ([5]; read-out: inhibitory activity (IC50, nM) MM.1S): > 10000 nM; IC50 ([13]; TMD8, read-out: inhibitory activity (IC50, nM) TMD8): > 10000 nM"
"Nc1cccc2c1C(=O)N(C1CCC(=O)NC1=O)C2=O (stereo not shown) [pomalidomide, reference compound]",,5000 to 10000 nM,> 10000 nM,> 10000 nM,500 to 1000 nM,,,,> 10000 nM,> 10000 nM,> 10000 nM,> 10000 nM,"IC50 [13, 22]: 5000 to 10000 nM"
